Where two headings read alike, the source gives them in different places. Blank lines part the entries; values can stand above or below the molecule they belong to.
What was measured:
[1] = Stability of fluorophores in the MPO/H2O2/Cl- system; type: physicochemical; details: fluorophore 5 µM, MPO 1.2 nM, H2O2 10 µM, NaCl 0.1 M, pH 7.4
Method: To check the stability of the COH, FL, and NBD-TSO fluorescence signal under the oxidizing conditions of MPO/H2O2/Cl^–, the fluorophores were incubated under the same reaction conditions, as described above for the five probes used in the study (Supplementary Figure S1). […] Overall, the fluorophores formed from the probes used may undergo consumption in the presence of MPO, H2O2 and Cl^–, due to their reaction with HOCl and/or via peroxidatic activity of MPO in the absence of Cl^–. This is, however, expected to occur only under the condition of excess of the oxidants (H2O2 and/or HOCl), as evidenced by the stable fluorescence signals of the products observed within 1 h of incubation (Fig. 3). The experimental design for monitoring HOCl involving probes producing such fluorophores should, therefore, take into account potential consumption of the fluorescent product, when the amount of the oxidant exceeds the probe availability.
(§1) Supplementary Figure S1. (a) Decrease of COH fluorescence in the incubation mixtures containing […]
(§2) in the presence of catalase (100 U/ml, black); in the absence of NaCl (green); in the absence of NaCl but in the presence of catalase (dark blue); in the absence of MPO (light blue); in th e absence of MPO but in the presence of catalase (pink). ( b), (c) same as (a) but instead of COH, incubation mixtures contained fluorescein and NBD -TSO, respectively.
Supplementary Figure S2. The relationship used to determine the rate constant between APF and HOCl (a), or […] and HOCl (b), according to the competition kinetic approach. The solid lines in the panel (a) and (b) represent the linear fittings to the equation
1 = 1 + 1 kAPC/or APF [APC/orAPF]. In the case of reaction between […]
(2kFLBA+HOCl = 1,11 × 104 M-1s-1). In the case of APF, the samples contained APF (0 – 100 µM), HOCl (5 µM), and CBA (25 µM) as a reference compound (2kCBA+HOCl = 1,80 × 104 M-1s-1). The concentrations of COH and fluorescein were determined by LC/MS. […]

[2] = cited from earlier work
[3] = Competition kinetics of APC and APF with boronate reference for HOCl; type: physicochemical; details: FLBA (for APC) or CBA (for APF) 25 µM as reference, HOCl 5 µM, pH 7.4
Method: The rate constants of 1.8 × 10^4 M^−1s^−1 and 1.1 × 10^4 M^−1s^−1 were obtained for CBA and FLBA, respectively, which are typical values reported for this class of probes (Fig. 4a,b)[29],[36],[38],[45]. […] The highest rate constant was obtained for the NBD-TM probe which was equal to 1.0 × 10^7 M^−1s^−1. This rate constant was calculated using a second order rate constant of 1.8 × 10^4 M^−1s^−1 for the reference compound (CBA). The determined value of the rate constant for NBD-TM is consistent with the reaction rate constants reported for other thioethers with HOCl[41],[46].
as §1, §2
Supplementary Figure S2. The relationship used to determine the rate constant between APF and HOCl (a), or […] and HOCl (b), according to the competition kinetic approach. The solid lines in the panel (a) and (b) represent the linear fittings to the equation […]
(2kFLBA+HOCl = 1,11 × 104 M-1s-1). […] The concentrations of COH and fluorescein were determined by LC/MS. […]

[4] = Stability of probe stock solutions; type: physicochemical; details: stock in acetonitrile or water/acetonitrile (1:1 v/v), 6 °C in the dark
Method: In the case of FLBA and APF, the two millimolar probe solutions were prepared in the water/acetonitrile mixture (1:1 v/v).

[5] = molecular target: T1, MPO (Homo sapiens, UniProt P05164); test: Z' parameter of the MPO/H2O2/Cl- assays; design: MPO from human neutrophils was obtained from Athens Research and Technology; purchased Athens Research and Technology (Athens, GA); host or cells: human neutrophils (natural source, donor material); details: both end-point (20 min) and kinetic (initial rates over 5 min) measurements
T1 sequence (P05164 279-745 limits assumed): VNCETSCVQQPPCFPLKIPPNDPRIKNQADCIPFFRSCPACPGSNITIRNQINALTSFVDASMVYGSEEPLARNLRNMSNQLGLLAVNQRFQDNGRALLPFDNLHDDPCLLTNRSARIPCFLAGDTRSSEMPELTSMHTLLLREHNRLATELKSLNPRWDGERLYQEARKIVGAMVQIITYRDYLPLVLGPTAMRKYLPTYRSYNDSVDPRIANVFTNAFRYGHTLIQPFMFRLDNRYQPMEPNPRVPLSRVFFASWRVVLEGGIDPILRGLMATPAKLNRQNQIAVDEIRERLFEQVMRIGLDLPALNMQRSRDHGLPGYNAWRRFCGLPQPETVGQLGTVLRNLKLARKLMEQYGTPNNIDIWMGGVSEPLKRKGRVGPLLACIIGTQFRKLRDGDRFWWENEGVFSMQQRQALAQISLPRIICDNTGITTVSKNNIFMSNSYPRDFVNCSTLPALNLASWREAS
T1 sequence (P05164 165-273 limits assumed): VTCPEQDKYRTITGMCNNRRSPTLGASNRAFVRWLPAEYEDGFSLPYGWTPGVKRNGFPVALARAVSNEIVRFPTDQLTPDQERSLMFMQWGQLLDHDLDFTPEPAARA
Method: The Z’ parameter is a measure of the assay quality in terms of its applicability to screen for bioactive compounds in cell-free or cell-based systems. The Z’ value of 0.5 or higher is generally accepted for the application of any assay for high throughput screening (HTS) of large chemical libraries. For the probes tested, the Z’ parameter was calculated on the basis of end-point measurements (fluorescence measured at a specific time of incubation) and kinetic measurements (rates of fluorescence increase), according to the Eq. 5. In the end-point measurements the Z’ values were calculated for the time of incubation equal to 20 min. To calculate the kinetic Z’ the initial rates of fluorescent product formation over 5 min were used. […] The lowest Z’ values around 0.7 were obtained for the NBD-TM probe. All the probes produced the Z’ values compatible with HTS applications.
The Z’ factor is a dimensionless coefficient and was calculated on the basis of data presented in Fig. 3 according to the equation below (Eq. 5)[57].5 Z^′=1-3S.D.control+-3S.D.control -/meancontrol +-meancontrol -, where S.D.control+ and S.D.control- are the standard deviation values, and meancontrol+ and meancontrol- are the mean values for the positive and negative control, respectively. The value of Z ' above 0.5 means good quality of the assay. The higher value of Z ' parameter means the better quality of the assay. This parameter cannot reach value higher than 1.

[6] = molecular target: T1, MPO; details: read-out: Azide anion IC50, MPO 1.2 nM, H2O2 10 µM, pH 7.4
Method: (§3) Mixtures contained MPO (1.2 nM), H2O2 (10 µM), NaCl (0.1 M), phosphate buffer (50 mM, pH 7.4), and the appropriate probe (20 µM). […] In the calculations the initial rates of probes oxidation were used. (Data are means ± standard deviation of three independent experiments).
MPO from human neutrophils was obtained from Athens Research and Technology (Athens, GA, According to the Certificate of Origin, the material used has been obtained from an FDA licensed collection center. Further the donors has given by signature full informed consent for the material to be used in commercial scientific research). […] Fluorescent probes were synthetized according to the procedures described in the literature. The synthesis of fluorescein pinacol boron ester (Fl-B) was performed based on the procedures published by Dickinson et al. and Rios et al.[58],[59]. The obtained boronate was then hydrolyzed to fluorescein boronic acid (FLBA). The synthesis of APF was performed based on the procedure published by Setsukinai and cooworkers. […] The detailed description of synthetic procedures can be found in the Supplementary Information. The CBA synthesis is described elsewhere[37],[61].
The lyophilized powder of MPO was dissolved in distilled water accordingly to the supplier recommendation and, if required, stored at 6 °C by the day of analysis. Such prepared solution was then diluted with phosphate buffer, pH 7.4, to the appropriate concentration and the volume of 0.5–2 µL/well depending on the activity was pipetted directly to 96-well plate (Costar 3840). […] Reactions were stared adding 100 µl/well of 20 µM hydrogen peroxide solution.

[7] = molecular target: T1, MPO; details: read-out: recommended average IC50 value; average of CBA, FLBA and NBD-TM probes
Method: as §3

[8] = Effect of DMSO on HOCl-induced probe oxidation; type: physicochemical; details: 20 µM probe, 10 µM HOCl, pH 7.4
Text: DMSO is a solvent well tolerated by cells and it is often used to dissolve organic compounds intended for cell culture studies. Most chemical libraries for HTS applications use DMSO as the solvent. However, DMSO reacts directly with HOCl with a second-order rate constant of 350 ± 40 M^−1s^−1 and it has been shown that it may interfere with oxidation of boronate probes by HOCl[49]. Thus, the influence of DMSO additive on the observed fluorescence signal generated in the reaction between HOCl and the studied probes was evaluated. In this experiment, the incubation mixtures contained the chosen probe (20 µM), phosphate buffer (50 mM, pH 7.4), and DMSO in the amounts between 0–5% v/v (0–0.7 M). The reaction with HOCl was initiated by the bolus addition of 1 mM sodium hypochlorite to obtain the final HOCl concentration of 10 µM. In the case of NBD-TM that reacts rapidly and stoichiometrically (1:1 ratio) with HOCl[44] about 10 µM of NBD-TSO was formed (Fig. 6). […] The presence of 0.5% v/v (0.07 M) or higher concentrations of DMSO was sufficient to completely scavenge HOCl and block the fluorescence increase.
Incubation mixtures contained 20 µM of a probe, 10 µM HOCl, 0–5% v/v (0–0.7 M) DMSO, and 50 mM phosphate buffer (pH 7.4). (Representative result of three independent experiments is shown. Points represent means ± S.D.)

stability of the fluorescence signal [1]: decreasing with the time of incubation
Molecule: O=c1ccc2ccc(O)cc2o1 [COH, 7-hydroxycoumarin]

Molecule: CSCC[C@H](N)C(=O)O [L-methionine]
reaction rate constant with HOCl (^2k) [2]: 3.4e+07 M⁻¹ s⁻¹

Molecule: O=[N+]([O-])c1ccc(N2CC[S+]([O-])CC2)c2nonc12 [NBD-TSO]
stability of the fluorescence signal [1]: slowly decomposing or precipitated during the time of incubation

Molecule: O=C1OC2(c3ccc(O)cc3Oc3cc(O)ccc32)c2ccccc21 [fluorescein]
stability of the fluorescence signal [1]: a slight decrease in the fluorescence intensity

stability of stock solution [4]: stable at least one-month
Z' value [5]: around 0.9
Molecule: Nc1ccc(Oc2ccc3c(-c4ccccc4C(=O)O)c4ccc(=O)cc-4oc3c2)cc1 [APF, 3’-(p-aminophenyl)-fluorescein]
rate constant with HOCl by competition kinetics compared with stopped-flow value [3]: nearly identical rate constants

Molecule: [N-]=[N+]=[N-] [Azide anion, sodium azide]
IC50 ([6]; APC probe 20 µM, NaCl 0.1 M): 1940 nM
IC50 ([6]; APF probe 20 µM, NaCl 0.1 M): 2370 nM
IC50 ([6]; Amplex Red 20 µM, no NaCl): 1040 nM
IC50 ([6]; Amplex Red 20 µM, no NaCl, listed as N3^–): 1000 nM
IC50 ([6]; CBA probe 20 µM, NaCl 0.1 M): 810 nM
IC50 ([6]; FLBA probe 20 µM, NaCl 0.1 M): 540 nM
IC50 ([6]; NBD-TM probe 20 µM, NaCl 0.1 M): 630 nM
IC50 [7]: 700 nM

stability of stock solution [4]: stable at least one-month
Z' value [5]: around 0.9
Molecule: O=c1ccc2ccc(B(O)O)cc2o1 [CBA, coumarin boronic acid]

Molecule: O=[N+]([O-])c1ccc(N2CCSCC2)c2nonc12 [NBD-TM, 4-thiomorpholino-7-nitrobenz-2-oxa-1,3-diazole]
decrease of NBD-TSO concentration by DMSO ([8]; 0.5% (0.07 M) DMSO): about 5%
decrease of NBD-TSO concentration by DMSO ([8]; 1% (0.14 M) DMSO): about 10%
decrease of NBD-TSO concentration by DMSO ([8]; 5% (0.7 M) DMSO): ~35%
Z' value [5]: around 0.7

Molecule: C[S+](C)[O-] [DMSO]
second-order rate constant of the reaction with HOCl [2]: 350 ± 40 M⁻¹ s⁻¹

Z' value [5]: around 0.9
Molecule: 7-(p-aminophenyl)-coumarin [APC]
rate constant with HOCl by competition kinetics compared with stopped-flow value [3]: nearly identical rate constants

stability of stock solution [4]: stable at least one-month
Z' value [5]: around 0.9
Molecule: O=C(O)c1ccccc1-c1c2ccc(=O)cc-2oc2cc(B(O)O)ccc12 [FLBA, fluorescein boronic acid]
